Data published in patent US4339442A, “Gynosaponins, their use and a process for preparing the same” (priority 1980, dated 1982).

How the values were obtained:
Type in all cases: cell-based, male wister rats
[1] = tested on: fat cells; assay: Synthesis of fat from glucose in fat cells; details: 20 μg/ml; for Power for synthesis of neutral fat from glucose: 37° C., half an hour; for activation at 20 µg/mL: Rattus norvegicus, 0.5 h, read-out: Rate of promotion; for activation at 20 µg/mL / Rate of promotion: none = 100
Experimental: (§1) Fat tissues were separated from the epididymides of male wister rats weighing 150 to 180 g each, and fat cells were obtained therefrom in accordance with the Rodbell's method [M. Rodbell, J. Biol. Chem., 239, 375 (1964)]. A small section was prepared from 4 g of the fat tissue, and placed in 10 ml. of Krebs-Ringer bicarbonate buffer containing 0.4 g of albumin, 10 mg of collagenase and 5 mg of glucose, and having a pH value of 7.4. It was heated at 37° C. for 50 minutes, and subjected to centrifugal separation at 300 rpm, whereby a floating fat cell layer was separated. Added into the fat cell were 10 ml. of the aforesaid buffer (pH 7.4), and the solution was carefully stirred to wash the fat cell, followed by centrifugal separation at 300 rpm for 30 seconds. This procedure was repeated twice, whereby the fat cells were washed perfectly, and these fat cells were used for the tests.
^14 C-glucose having its carbon atoms marked with radioactivity was reacted upon fat cells, and a Geiger count was read to determine the amount of the glucose participating in the fat synthesis and incorporated into the fat cells as a neutral fat, whereby gynosaponins were tested for their effects on the power of the glucose for fat synthesis.
More specifically, the fat cells obtained by treating with collagenase were suspended in KRB, and 0.35 ml. of the resulting solution containing 100 mg of fat cells was placed into a test tube with 0.1 ml. of each saponin solution containing 20 μg of saponin, 0.5 ml. of a 5% albumin solution in KRB, containing 10 mM glucose and having a pH value of 7.4, and 0.05 ml. of a ^14 C-glucose solution which was a 0.5 μCi KRP solution having a pH value of 7.4 and containing 10 mM glucose. They were heated at 37° C. for half an hour, and after 5 ml. of Dole's extract were added and the whole was shaked for five minutes, 3 ml. of heptane and 2 ml. of water were added, and the whole was shaked for five minutes. 3 ml. of a heptane layer were separated, and after an alkaline ethanol solution (0.5 N sodium hydroxide solution, 50 % ethanol solution) was added in the amount of 3 ml., the whole was shaked for five minutes. Then, 1 ml. of an ethanol layer was separated, and 10 ml. of a toluene scintillation solution were added thereinto, followed by determination according to the method of Skipski et al. [Biochem. Biophys. Acta, 106, 386 (1965)].

[2] = tested on: fat cells; assay: Decomposition of the fat in the fat cell by ACTH; details: ACTH 1 μg/ml + saponin 20 μg/ml, 37° C., two hours; for inhibition at 20 µg/mL: Rattus norvegicus, 2 h, read-out: Rate of inhibition
Experimental: as §1
The fat cells obtained by treating with collagenase were suspended in Krebs-Ringer bicarbonate buffer (KRB) having a pH value of 7.4. Placed into a test tube were 0.3 ml. of the solution thus obtained (containing 100 mg of fat cells), 0.1 ml. of ACTH solution containing 1 μg of ACTH, 0.1 ml. of each saponin solution containing 500 μg of saponin, and 0.3 ml. of a 5% alubumin solution in KRB, and having a pH value adjusted to 7.4. They were heated at 37° C. for two hours, and the amount of the resulting free fatty acid was determined in accordance with the Dole's method [V. P. Dole, J. Biol. Chem., 35, 150 (1958)].
Namely, 3 ml. of Dole's extract were separated into the reaction system, and 1 ml. of a thymol blue solution was added thereinto. Nitrogen was blown into the resulting solution, and the solution was titrated with a 0.008 N aqueous solution of sodium hydroxide, while it was being stirred. The amount of the resulting free fatty acid was determined in accordance with a calibration curve.
The rate of inhibition against fat decomposition was obtained in accordance with the following equation: [formula] wherein A stands for the amount of the free fatty acid formed by addition of ACTH along in the amount of 1 μg/ml.; and B stands for the amount of the free fatty acid formed by addition of ACTH and saponin in the amount of 1 μg/ml. and 20 μg/ml., respectively.

[3] = tested on: fat cells; assay: Decomposition by adrenalin of the fat in the fat cells; details: adrenalin 1 μg/ml + saponin 20 μg/ml, 37° C., two hours; for inhibition at 20 µg/mL: Rattus norvegicus, 2 h, read-out: Rate of inhibition
Experimental: A small section was prepared from 4 g of the fat tissue, and placed in 10 ml. of Krebs-Ringer bicarbonate buffer containing 0.4 g of albumin, 10 mg of collagenase and 5 mg of glucose, and having a pH value of 7.4. […] Added into the fat cell were 10 ml. of the aforesaid buffer (pH 7.4), and the solution was carefully stirred to wash the fat cell, followed by centrifugal separation at 300 rpm for 30 seconds. This procedure was repeated twice, whereby the fat cells were washed perfectly, and these fat cells were used for the tests.
The fat cells obtained by treating with collagenase were suspended in Krebs-Ringer phosphate buffer (KRP) having a pH value of 7.4. Placed into a test tube were 0.3 ml. of the solution thus obtained, and containing 100 mg of fat cells, 0.1 ml. of an adrenalin solution containing 1 μg of adrenalin, 0.1 ml. of a saponin solution containing 20 μg of saponin, and 0.5 ml. of a 5% albumin solution in KRP, and having a pH value adjusted to 7.4. […] More specifically, 3 ml. of Dole's extract were placed in the reaction system, and after they were shaked for five minutes, 3 ml. of heptane were dispensed, and 1 ml. of a thymol blue solution was added thereinto. The resulting solution was titrated with a 0.008 N aqueous solution of sodium hydroxide, while it was being stirred with nitrogen, and the amount of the resulting free fatty acid was determined in accordance with a calibration curve.
The rate of inhibition was obtained in accordance with the equation shown at (1) above.

Molecule | Power for synthesis of neutral fat from glucose [1] | activation at 20 µg/mL [1] | Free fatty acid formed by decomposition of fat [2] | inhibition at 20 µg/mL [2] | inhibition at 20 µg/mL [3] | Free fatty acid formed by decomposition of fat [3] | Rate of promotion [1] | Rate of inhibition [2] | Rate of inhibition [3]
CC(C)=CCC[C@](C)(O[C@@H]1O[C@H](CO[C@@H]2OC[C@@H](O)[C@H](O)[C@H]2O)[C@@H](O)[C@H](O)[C@H]1O)[C@H]1CC[C@]2(C)[C@@H]1[C@H](O)C[C@@H]1[C@@]3(C)CC[C@H](O)C(C)(C)[C@@H]3CC[C@]12C [gynosaponin M, 20S-Protopanaxadiol-20-O-[β-D-xylopyranosyl (1→6)-β-D-glucopyranoside]] | 12,650 cpm/g | 59% | 6.4 μ Eq/g | 24% | 4% | 13.5 μ Eq/g |  |  | 
20S-Protopanaxadiol-3-O-{[β-D-glucopyranosyl (1→2)-α-L-rhamnopyranosyl (1→6)]-β-D-glucopyranoside}-20-O-β-D-glucopyranoside [gynosaponin F] | 11,620 cpm/g |  | 6.3 μ Eq/g |  |  | 13.4 μ Eq/g | 54% | 25% | 5%
CC(C)=CCC[C@](C)(O[C@@H]1O[C@H](CO[C@@H]2O[C@H](CO)[C@@H](O)[C@H](O)[C@H]2O)[C@@H](O)[C@H](O)[C@H]1O)[C@H]1CC[C@]2(C)[C@@H]1[C@H](O)C[C@@H]1[C@@]3(C)CC[C@H](O[C@@H]4O[C@H](CO[C@@H]5O[C@@H](C)[C@H](O)[C@@H](O)[C@H]5O)[C@@H](O)[C@H](O)[C@H]4O)C(C)(C)[C@@H]3CC[C@]12C [progynosapogenin A2, 20S-Protopanaxadiol-3-O-[α-L-rhamnopyranosyl (1→6)-β-D-glucopyranoside]-20-O-[β-D-glucopyranosyl (1→6)-β-D-glucopyranoside]] | 12,650 cpm/g | 59% | 6.2 μ Eq/g | 26% | 8% | 13.0 μ Eq/g |  |  | 
CC(C)=CCC[C@](C)(O[C@@H]1O[C@H](CO[C@@H]2OC[C@@H](O)[C@H](O)[C@H]2O)[C@@H](O)[C@H](O)[C@H]1O)[C@H]1CC[C@]2(C)[C@@H]1[C@H](O)C[C@@H]1[C@@]3(C)CC[C@H](O[C@@H]4O[C@H](CO)[C@@H](O)[C@H](O)[C@H]4O[C@@H]4OC[C@@H](O)[C@H](O)[C@H]4O)C(C)(C)[C@@H]3CC[C@]12C [gynosaponin Q, 20S-Protopanaxadiol-3-O-[β-D-xylopyranosyl (1→2)-β-D-glucopyranoside]-20-O-[β-D-xylopyranosyl (1→6)-β-D-glucopyranoside]] | 11,620 cpm/g | 54% | 5.8 μ Eq/g | 31% | 4% | 13.5 μ Eq/g |  |  | 
CC(=CCC[C@](C)(O[C@@H]1O[C@H](CO[C@@H]2OC[C@@H](O)[C@H](O)[C@H]2O)[C@@H](O)[C@H](O)[C@H]1O)[C@H]1CC[C@]2(C)[C@@H]1[C@H](O)C[C@@H]1[C@@]3(C)CC[C@H](O)C(C)(C)[C@@H]3CC[C@]12C)CO [gynosaponin U, 20S,26-Hydroxyprotopanaxadiol-20-O-[β-D-xylopyranosyl (1→6)-β-D-glucopyranoside]] | 13,100 cpm/g | 61% | 5.6 μ Eq/g | 33% | 2% | 13.8 μ Eq/g |  |  | 
CC(C)=CCC[C@](C)(O[C@@H]1O[C@H](CO[C@@H]2O[C@@H](C)[C@H](O)[C@@H](O)[C@H]2O)[C@@H](O)[C@H](O)[C@H]1O)[C@H]1CC[C@]2(C)[C@@H]1[C@H](O)C[C@@H]1[C@@]3(C)CC[C@H](O[C@@H]4O[C@H](CO)[C@@H](O)[C@H](O)[C@H]4O[C@@H]4OC[C@@H](O)[C@H](O)[C@H]4O)C(C)(C)[C@@H]3CC[C@]12C [gynosaponin R, 20S-Protopanaxadiol-3-O-[β-D-xylopyranosyl (1→2)-β-D-glucopyranoside]-20-O-[α-L-rhamnopyranosyl (1→6)-β-D-glucopyranoside]] | 12,600 cpm/g | 59% | 6.2 μ Eq/g | 26% | 1% | 14.0 μ Eq/g |  |  | 
20S-Protopanaxadiol-3-O-{[β-D-glucopyranosyl (1→2)-α-L-rhamnopyranosyl (1→6)]-β-D-glucopyranoside}-20-O-[β-D-glucopyranosyl (1→6)-β-D-glucopyranoside] [gynosaponin A] | 8,013 cpm/g |  | 6.1 μ Eq/g |  |  | 13.4 μ Eq/g | 37% | 27% | 5%
CC(C)=CCC[C@](C)(O[C@@H]1O[C@H](CO[C@@H]2O[C@@H](C)[C@H](O)[C@@H](O)[C@H]2O)[C@@H](O)[C@H](O)[C@H]1O)[C@H]1CC[C@]2(C)[C@@H]1[C@H](O)C[C@@H]1[C@@]3(C)CC[C@H](O[C@@H]4O[C@H](CO)[C@@H](O)[C@H](O)[C@H]4O)C(C)(C)[C@@H]3CC[C@]12C [gynosaponin J, 20S-Protopanaxadiol-3-O-β-D-glucopyranoside-20-O-[α-L-rhamnopyranosyl (1→6)-β-D-glucopyranoside]] | 11,650 cpm/g | 54% | 5.3 μ Eq/g | 37% | 7% | 13.1 μ Eq/g |  |  | 
CC(=CCC[C@](C)(O[C@@H]1O[C@H](CO)[C@@H](O)[C@H](O)[C@H]1O)[C@H]1CC[C@]2(C)[C@@H]1[C@H](O)C[C@@H]1[C@@]3(C)CC[C@H](O)C(C)(C)[C@@H]3CC[C@]12C)CO [progynosapogenin O1, 20S,26-Hydroxyprotopanaxadiol-20-O-β-D-glucopyranoside] | 11,200 cpm/g | 52% | 5.9 μ Eq/g | 30% | 11% | 12.6 μ Eq/g |  |  | 
